Test results as given in US20230114728A1 (Venatorx Pharmaceuticals, Inc., priority 2019, published 2023).
Values after ≈ are worked out from the molar mass of the structure shown.

Key:
Assay in all cases: Broth microdilution MIC in iron-depleted CAMHB (IDM)
Format in all cases: cell-based
[1] = system: A. baumannii CDC-0045 producing TEM-1D, OXA-23, and OXA-69; conditions: Acinetobacter baumannii, read-out: Minimum Inhibitory Concentration, CDC-0045
[2] = system: P. aeruginosa CDC-0110; conditions: Pseudomonas aeruginosa, CDC0110, read-out: Minimum Inhibitory Concentration, P. aeruginosa CDC-0110
Procedure, shortened: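 CLSI broth microdilution in iron-depleted cation-adjusted Mueller Hinton broth (Chelex-treated, Ca, Mg, Zn restored, pH 7.3), inoculum 2-8×10^5 CFU/mL, 2-fold compound dilutions. Pseudomonas plates incubated 16-20 h at 37 °C; MIC read visually as lowest concentration without growth.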

[3] = system: P. aeruginosa ATCC 27853; conditions: Pseudomonas aeruginosa, ATCC27853, read-out: Minimum Inhibitory Concentration, P. aeruginosa ATCC 27853
Procedure, shortened: (§1)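 IDM = CAMHB stripped with Chelex 100 resin 2 h, supplemented CaCl2 82.5 mg/L, MgCl2 94.1 mg/L, ZnSO4 10 μM, pH 7.3. 2-fold compound dilutions; 2-8×10^5 CFU/mL; 37° C; Acinetobacter 20-24 h, Pseudomonas 16-20 h. Visual MIC.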

[4] = system: P. aeruginosa CDC-0090 producing KPC-5, OXA-50, and PAO; conditions: Pseudomonas aeruginosa, read-out: Minimum Inhibitory Concentration, P. aeruginosa CDC-0090
Procedure, shortened: as §1

[5] = system: A. baumannii CDC-0033 producing NDM-1, and OXA-94; conditions: Acinetobacter baumannii, read-out: Minimum Inhibitory Concentration, CDC-0033
Procedure, shortened: as §1

[6] = system: P. aeruginosa (ΔmexAB-oprM); conditions: Pseudomonas aeruginosa, read-out: Minimum Inhibitory Concentration, P. aeruginosa ΔmexAB-OprM
Procedure, shortened: as §1

[7] = system: A. baumannii ATCC 17978; conditions: Acinetobacter baumannii, ATCC17978, read-out: Minimum Inhibitory Concentration, ATCC 17978
Procedure, shortened: as §1

[8] = system: A. baumannii CDC-0036 OXA-65, and OXA-24; conditions: Acinetobacter baumannii, read-out: Minimum Inhibitory Concentration, CDC-0036
Procedure, shortened: as §1

[9] = system: A. baumannii CDC-0083 producing NDM-1, PER-7, OXA-23, and OXA-69; conditions: Acinetobacter baumannii, read-out: Minimum Inhibitory Concentration, CDC-0083
Procedure, shortened: as §1

[10] = system: P. aeruginosa ATCC 35151; conditions: Pseudomonas aeruginosa, ATCC35151; iron-depleted MHB (IDM); hyper-permeable strain; read-out: Minimum Inhibitory Concentration, P. aeruginosa ATCC 35151
Procedure, shortened: as §1

[11] = system: P. aeruginosa CDC-0095 producing OXA-50, and PAO; conditions: Pseudomonas aeruginosa, read-out: Minimum Inhibitory Concentration, P. aeruginosa CDC-0095
Procedure, shortened: as §1

[12] = system: A. baumannii IL123 (ABΔ3-ARAEcPore); conditions: Acinetobacter baumannii, read-out: Minimum Inhibitory Concentration, IL-2123
Procedure, shortened: as §1

[13] = system: A. baumannii ATCC 19606; conditions: Acinetobacter baumannii, ATCC19606, read-out: Minimum Inhibitory Concentration, ATCC 19606
Procedure, shortened: as §1

[14] = system: P. aeruginosa CDC-0054 producing VIM-4, OXA-50, and PAO; conditions: Pseudomonas aeruginosa, read-out: Minimum Inhibitory Concentration, P. aeruginosa CDC-0054
Procedure, shortened: as §1

| SMILES | MIC [1] [µg/mL] | MIC [2] [µg/mL] | MIC [3] [µg/mL] | MIC [4] [µg/mL] | MIC [5] [µg/mL] | MIC [6] [µg/mL] | MIC [7] [µg/mL] | MIC [8] [µg/mL] | MIC [9] [µg/mL] | MIC [10] [µg/mL] | MIC [11] [µg/mL] | MIC [12] [µg/mL] | MIC [13] [µg/mL] | MIC [14] [µg/mL] |
| --- | --- | --- | --- | --- | --- | --- | --- | --- | --- | --- | --- | --- | --- | --- |
| O=C(O)c1c(F)ccc2c1OB(O)[C@@H](NC(=O)C(NC(=O)N1CCN(CCBr)C(=O)C1=O)c1c(F)cc(O)c(O)c1F)C2 (stereo partly drawn) [Example 38, (3R)-3-(2-(4-(2-bromoethyl)-2,3-dioxopiperazine-1-carboxamido)-2-(2,6-difluoro-3,4-dihydroxyphenyl)acetamido)-7-fluoro-2-hydroxy-3,4-dihydro-2H-benzo[e][1,2]oxaborinine-8-carboxylic acid] | 0.5 to 1 (≈ 0.743 to 1.49 µM) | 0.5 to 1 (≈ 0.743 to 1.49 µM) | 2 to 4 (≈ 2.97 to 5.94 µM) | 2 to 4 (≈ 2.97 to 5.94 µM) | 2 to 4 (≈ 2.97 to 5.94 µM) | 0.25 (≈ 0.371 µM) | 0.25 (≈ 0.371 µM) | 2 to 4 (≈ 2.97 to 5.94 µM) | 0.5 to 1 (≈ 0.743 to 1.49 µM) | 0.25 (≈ 0.371 µM) | 8 to 16 (≈ 11.9 to 23.8 µM) | 2 to 4 (≈ 2.97 to 5.94 µM) | 0.25 (≈ 0.371 µM) | 8 to 16 (≈ 11.9 to 23.8 µM) |
| CCN1CCN(C(=O)NC(C(=O)N[C@H]2Cc3ccc(F)c(C(=O)O)c3OB2O)c2cc(F)c(O)c(O)c2Cl)C(=O)C1=O (stereo partly drawn) [Example 42, (3R)-3-(2-(2-chloro-5-fluoro-3,4-dihydroxyphenyl)-2-(4-ethyl-2,3-dioxopiperazine-1-carboxamido)acetamido)-7-fluoro-2-hydroxy-3,4-dihydro-2H-benzo[e][1,2]oxaborinine-8-carboxylic acid] | 0.25 (≈ 0.409 µM) | 0.25 (≈ 0.409 µM) | 0.5 to 1 (≈ 0.819 to 1.64 µM) | 0.25 (≈ 0.409 µM) | 0.5 to 1 (≈ 0.819 to 1.64 µM) | 0.25 (≈ 0.409 µM) | 0.25 (≈ 0.409 µM) | 0.5 to 1 (≈ 0.819 to 1.64 µM) | 0.25 (≈ 0.409 µM) | 0.25 (≈ 0.409 µM) | 0.5 to 1 (≈ 0.819 to 1.64 µM) | 0.5 to 1 (≈ 0.819 to 1.64 µM) | 0.25 (≈ 0.409 µM) | 0.5 to 1 (≈ 0.819 to 1.64 µM) |
